{
  "source": "patent US20180320186A1",
  "about": "“METHOD FOR SITE-SPECIFIC INSERTION OF FOREIGN DNA INTO A GENOME IN AN ANIMAL CELL AND A CELL OBTAINED USING SAME” (INTER-UNIVERSITY RESEARCH INSTITUTE CORPORATION RESEARCH …, priority 2015, published 2018)",
  "format_in_all_cases": "cell-based, human",
  "key": {"[1]": {"tested_on": "living cells in which a DHC1-mAID-Clover fusion protein is expressed", "assay": "Relative number of cells after treatment of cells expressing DHC1-mAID-Clover", "details": "500 μM auxin with 2 μg/mL doxycycline; 24, 48 and 72 hours relative to zero hours", "procedure": "FIG. 11 is a graph showing the relative number of cells at 24, 48, and 72 hours after treatment with respect to the number of cells at zero hours after treatment, using living cells in which a DHC1-mAID-Clover fusion protein is expressed, untreated and treated with 2 μg/mL of doxycycline alone, or 2 μg/mL of doxycycline and 500 μM of auxin.\nThe relative number of cells at 24, 48, and 72 hours after treatment was calculated with respect to the number of cells at zero hours after treatment, using living cells in which a DHC1-mAID-Clover fusion protein is expressed, untreated and treated with 2 μg/mL of doxycycline alone, or 2 μg/mL of doxycycline and 500 μM of auxin (FIG. 11)."}, "[2]": {"tested_on": "RAD21-mAID-Clover fusion protein", "assay": "Deconvolution fluorescence microscopy of living cells expressing RAD21-mAID-Clover after auxin treatment", "details": "500 μM auxin, observed after 90 minutes, HCT116 with or without OsTIR1", "procedure": "(§1) In this experiment, wild-type HCT116 cells and HCT 116 cells modified to constitutively express OsTIR1 necessary for an auxin-inducible degron (AID) method were used as materials. Proliferating cells were prepared in a 6-well plate. 0.8 μg of pX330 for cleaving the target portion of RAD21 gene and 0.6 μg of each of the constructed donor vectors having neomycin and hygromycin resistance markers were mixed and transfected into the cells using Fugene HD (available from Promega Corporation). For transfection, DNA and Fugene HD were mixed according to the instruction manual, allowed to stand for 15 minutes and then added dropwise to the medium.\nIn the cells before treatment with auxin (3-indole acetic acid), it was observed that RAD21-mAID-Clover was localized in the cell nucleus, regardless of expression of OsTIR1."}, "[3]": {"tested_on": "RAD21-mAID-Clover fusion protein", "assay": "Western blotting of RAD21-mAID-Clover after auxin treatment (AID method)", "details": "500 μM auxin for 20 hours, HCT116 with or without OsTIR1", "procedure": "as §1\nA protein was extracted from clones in which insertions into both alleles were confirmed by genomic PCR, and subjected to Western blotting using a RAD21 antibody and a mAID antibody (right in FIG. 6). […] The RAD21 to which mAID-Clover was not added was detected at 105 kDa. On the other hand, the RAD21-mAID-Clover fusion protein was detected at 145 kDa. As shown in the right side of FIG. 6, in the case where a RAD21 antibody was used, a 105 kDa band was detected in the original HCT116 cells (WT), whereas in the case where mAID-Clover was added to both alleles, a 145 kDa band was detected. In addition, in the case where a mAID antibody was used, only the RAD21 protein having mAID-Clover added thereto was detected."}, "[4]": {"tested_on": "living cells in which a DHC1-mAID-Clover fusion protein is expressed", "assay": "Percentage of mitotic cells and fluorescence microscopy (tubulin antibody, SiR-Hoechst) of cells expressing DHC1-mAID-Clover", "details": "500 μM auxin with 1 μg/mL tetracycline", "procedure": "FIG. 12 is a graph showing the percentage of mitotic cells at 18 and 42 hours after treatment, using living cells in which a DHC1-mAID-Clover fusion protein is expressed, untreated and treated with 1 μg/mL of tetracycline alone, or 1 μg/mL of tetracycline and 500 μM of auxin.\nThe percentage of mitotic cells at 18 and 42 hours after treatment was calculated, using living cells in which a DHC1-mAID-Clover fusion protein is expressed, untreated and treated with 1 μg/mL of tetracycline alone, or 1 μg/mL of tetracycline and 500 μM of auxin (FIG. 12).\nIn addition, fluorescence microscope observation was carried out after immunostaining with a tubulin antibody and nuclear staining with SiR-Hoechst at 18 hours after treatment for living cells in which a DHC1-mAID-Clover fusion protein is expressed, untreated and treated with 1 μg/mL of tetracycline and 500 μM of auxin (FIG. 13)."}, "[5]": {"tested_on": "DHC1 protein having mAID-Clover added", "assay": "Western blotting with DHC1 antibody after doxycycline and auxin treatment", "details": "500 μM auxin with 2 μg/mL doxycycline for 2, 4, 6, 8, 10 and 24 hours", "procedure": "as §1, with “DHC1” for “RAD21”\nA protein was extracted from clones in which insertions into both alleles were confirmed by genomic PCR, and subjected to Western blotting using a DHC1 antibody and an OsTIR antibody (right in FIG. 10). In addition, a protein was similarly extracted from the cells treated with 2 μg/mL of doxycycline and 500 μM of auxin (3-indole acetic acid) for 2, 4, 6, 8, 10, and 24 hours, and used for Western blotting."}},
  "data": [
    {"smiles": "O=C(O)Cc1c[nH]c2ccccc12", "note": "[auxin, 3-indole acetic acid]", "values": [
      {"measurement": "Relative number of cells (cell proliferation)", "setting": "[1]", "result": "cell proliferation was suppressed after 48 hours from the treatment"},
      {"measurement": "Disappearance of RAD21-mAID-Clover from the nucleus (fluorescence microscope)", "setting": "[2]", "result": "RAD21-mAID-Clover disappeared only in cells expressing OsTIR1"},
      {"measurement": "Degradation of RAD21-mAID-Clover (Western blotting)", "setting": "[3]", "result": "disappearance of RAD21-mAID-Clover occurred in OsTIR1-expressing cells"},
      {"measurement": "Percentage of mitotic cells", "setting": "[4]; 18 and 42 hours after treatment", "result": "accumulation of mitotic cells"},
      {"measurement": "Chromosomal structure (fluorescence microscopy)", "setting": "[4]; 18 hours after treatment", "result": "a chromosomal structural abnormality occurred"},
      {"measurement": "DHC1-mAID-Clover protein level (DHC1 antibody)", "setting": "[5]", "result": "disappeared with time"}
    ]}
  ]
}
